“Also recorded” adds a separate entry of the source. Read-outs that look alike come from different tables or passages of the source.
Columns and labels:
[1] = biological target: neuraminidase from Clostridium perfringens (BNA) (Clostridium perfringens, UniProt P10481); type: binding
[2] = biological target: neuraminidase from Clostridium perfringens (BNA); type: biochemical; details: for Kinetic mode: Lineweaver-Burk and Dixon plots
[3] = tested on: neuraminidase from Clostridium perfringens (BNA, EC 3.2.1.18); type: biochemical; details: for fold higher inhibition than compound 6: ratio of IC50 vs compound 6
[4] = Dixon plots, read-out: K i (inhibition constant)
[5] = sodium acetate buffer pH 5.0, substrate 100 μM, BNA 0.02 unit/mL, triplicate, read-out: IC50

Chain of neuraminidase from Clostridium perfringens (BNA) (Clostridium perfringens, UniProt P10481) (P10481 whole entry, looked up): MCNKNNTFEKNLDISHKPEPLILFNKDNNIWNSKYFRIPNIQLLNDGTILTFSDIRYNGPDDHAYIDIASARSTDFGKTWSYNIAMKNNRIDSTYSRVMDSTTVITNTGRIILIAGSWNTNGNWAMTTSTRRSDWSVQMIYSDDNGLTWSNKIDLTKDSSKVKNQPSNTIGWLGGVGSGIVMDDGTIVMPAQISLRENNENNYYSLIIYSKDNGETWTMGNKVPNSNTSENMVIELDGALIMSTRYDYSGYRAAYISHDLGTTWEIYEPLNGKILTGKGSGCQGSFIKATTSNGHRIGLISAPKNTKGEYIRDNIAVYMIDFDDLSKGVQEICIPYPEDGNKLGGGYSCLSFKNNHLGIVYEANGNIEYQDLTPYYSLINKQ

Compound | K A (affinity constant) [1] [L/mol] | K SV (Stern-Volmer constant) [1] [L/mol] | n (binding number of xanthone to the BNA) [1] | Ki [2, 4] [µM] | Kinetic mode [2] | fold more effective relative to gentisein ([3]; ratio of IC50 vs gentisein) [fold] | IC50 [3, 5] [µM] | Change of BNA fluorescence (FS) intensity with increasing inhibitor concentration [1] | Time-dependent (slow-binding) behaviour ([2]; preincubation 0-75 min) | Reversibility of inhibition ([2]; residual activity vs enzyme concentration (0.01, 0.02, 0.04 unit/mL)) | k 3 ([2]; slow-binding inhibition, forward rate of enzyme-inhibitor complex formation) [M⁻¹ s⁻¹] | Ki ([2]; slow-binding inhibition, preincubation with 0, 0.2, 0.4, 0.8 µM inhibitor, read-out: K i app) [µM] | k 4 ([2]; slow-binding inhibition, reverse rate) [min⁻¹] | fold more effective than compound 3 ([3]; ratio of IC50 vs compound 3) [fold] | fold higher inhibition than compound 6 [3] [fold] | IC50 ([3]; text in the panels of supplementary Figure S36, read-out: IC50 printed in Figure S36) [µM]
CC(C)=CCC/C(C)=C/Cc1c(O)c(CC=C(C)C)c(O)c2c(=O)c3cc(O)ccc3oc12 [Compound 6, cochinechinone A] | 1800 | 9860 | 0.4337 | 9.6 | non-competitive inhibitor | 2 | 9.8 ± 0.3 |  |  |  |  |  |  |  |  | 
C=C(C)C(O)CC/C(C)=C/Cc1c(O)c(CC=C(C)C)c(O)c2c(=O)c3cc(O)ccc3oc12 (stereo not shown) [Compound 1, (E)-1,3,7-trihydroxy-4-(6-hydroxy-3,7-dimethylocta-2,7-dien-1-yl)-2-(3-methylbut-2-en-1-yl)-9H-xanthen-9-one] | 244300 | 157920 | 1.2897 | 0.17 | competitive inhibitor |  | 0.38 ± 0.03 | decreased dramatically | reversible slow-binding inhibition; also recorded: simple slow-binding inhibitor; also recorded: simple reversible slow binding behavior | reversible inhibitor | 141000 | 0.144 | 0.0203 | 100 | 30 | 
(E)-1,3,7-trihydroxy-4-(7-hydroxy-3,7-dimethyloct-2-en-1-yl)-2-(3-methylbut-2-en-1-yl)-9H-xanthen-9-one [Compound 2] | 20 | 970 | 0.1796 | 40.7 | Non-competitive |  | 38.9 ± 0.6 | did not decrease |  |  |  |  |  |  |  | 
O=c1c2cc(O)ccc2oc2cc(O)cc(O)c12 [Gentisein, reference compound] | 110 | 5350 | 0.3701 |  |  |  | 21.4 ± 0.5 |  |  |  |  |  |  |  |  | 21.4
C=C(C)CC(O)c1c(O)c(C/C=C(\C)CCC=C(C)C)c2oc3ccc(O)cc3c(=O)c2c1O (stereo not shown) [Compound 4, cratoxanthone A] | 55450 | 27140 | 0.7819 | 4.2 | Non-competitive |  | 3.8 ± 0.1 |  |  |  |  |  |  |  | 3 | 
CC(C)=CCc1c(O)c(C/C=C(\C)C/C=C/C(C)(C)O)c2oc3ccc(O)cc3c(=O)c2c1O [Compound 3, 1,3,7-trihydroxy-4-[(2E,5E)-7-hydroxy-3,7-dimethylocta-2,5-dien-1-yl]-2-(3-methylbut-2-en-1-yl)-9H-xanthen-9-one] | 20 | 1000 | 0.2168 | 38.2 | Non-competitive |  | 35.8 ± 0.7 |  |  |  |  |  |  |  |  | 
C=C(CCC=C(C)C)C(O)Cc1c(O)c(CC=C(C)C)c(O)c2c(=O)c3cc(O)ccc3oc12 (stereo not shown) [Compound 5, cratoxanthon F] | 1030 | 10230 | 0.4992 | 9.1 | Non-competitive |  | 9.2 ± 0.2 |  |  |  |  |  |  |  |  | 

Source: PMC10445491 (Frontiers in Chemistry, 2023)
